Experimental data taken from patent publication US8541449B2, “Substituted isoquinolines and isoquinolinones as Rho kinase inhibitors” (Sanofi, priority 2008, dated 2013).

Experiments:
Assay type in all cases: biochemical
[1] = target: T1, recombinant human PKG1-beta (Homo sapiens, UniProt Q13976); assay: Determination of Protein Kinase G inhibition (Caliper peptide phosphorylation assay); settings: recombinant human PKG1-beta versus ROCK II
T1 construct: Active recombinant human PKG1-beta (full-length, with N-terminal His-tag); His-tag (N); purchased Millipore GmbH, Schwalbach, Germany
T1 sequence (Q13976 1-686 isoform Q13976-2): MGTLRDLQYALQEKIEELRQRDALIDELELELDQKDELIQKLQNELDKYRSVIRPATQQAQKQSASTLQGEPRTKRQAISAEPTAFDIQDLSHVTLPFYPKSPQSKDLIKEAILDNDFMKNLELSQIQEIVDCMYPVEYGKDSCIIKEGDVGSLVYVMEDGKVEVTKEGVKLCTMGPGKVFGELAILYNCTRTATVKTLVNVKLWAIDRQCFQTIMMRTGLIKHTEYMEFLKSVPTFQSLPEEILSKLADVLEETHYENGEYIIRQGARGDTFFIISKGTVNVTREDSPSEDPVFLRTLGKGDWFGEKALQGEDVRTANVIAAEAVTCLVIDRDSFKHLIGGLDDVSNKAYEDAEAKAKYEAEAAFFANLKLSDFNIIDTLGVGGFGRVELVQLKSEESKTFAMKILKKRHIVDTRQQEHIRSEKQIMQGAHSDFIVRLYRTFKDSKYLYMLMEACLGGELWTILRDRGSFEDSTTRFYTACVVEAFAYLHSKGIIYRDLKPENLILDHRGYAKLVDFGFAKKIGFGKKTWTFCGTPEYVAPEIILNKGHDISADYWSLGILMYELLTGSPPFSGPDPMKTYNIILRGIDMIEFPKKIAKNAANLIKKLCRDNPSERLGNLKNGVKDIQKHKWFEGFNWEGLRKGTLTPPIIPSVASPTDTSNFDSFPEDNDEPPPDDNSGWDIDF
Experimental: (§1) Determination of Protein Kinase A and Protein Kinase G Inhibition
(§2) To measure PKA and PKG1-beta inhibition, IC50 values were determined according to the following protocol:
(§3) Active recombinant human PKG1-beta (full-length, with N-terminal His-tag) was purchased from Millipore GmbH, Schwalbach, Germany. Active recombinant human PKA (residues 1-351, N-terminal His-tag) was obtained from Invitrogen, Karlsruhe, Germany. The peptide substrate, Fluorescein-[…]-COOH, was obtained from JPT Peptide Technologies, Berlin, Germany. Adenosine-5′-triphosphate (ATP), bovine serum albumine (BSA), dimethylsulphoxide (DMSO), 4-(2-Hydroxyethyl)piperazine-1-ethanesulfonic acid (Hepes), Brij-35, dithiothreitol (DTT) and Pluronic F-68 were purchased from Sigma-Aldrich, Munich, Germany. Tris(hydroxymethyl)-aminomethane (Tris), magnesium chloride, NaOH, 1M HCl and EDTA were obtained from Merck Biosciences, Darmstadt, Germany. “Complete” protease inhibitor was from Roche Diagnostics, Mannheim, Germany.
(§4) Test compounds were diluted to the appropriate concentrations in buffer 1 (25 mM Tris-HCl, pH 7.4, 5 mM MgCl2, 2 mM DTT, 0.02% (w/v) BSA, 0.01% Pluronic F-68 and 3% DMSO). PKG1-beta and PKA were diluted to concentrations of 150 ng/ml and 30 ng/ml, respectively, in buffer 2. The peptide substrate and ATP were diluted to concentrations of 3 μM and 120 μM, respectively, in the buffer 2. Two μl of the compound solution were mixed with 2 μl of the diluted enzyme in a 384-well small volume microtiter plate (Greiner, Bio-One, Frickenhausen, Germany), and the kinase reaction was initiated by addition of 2 μl of the solution containing peptide substrate and ATP. After 60 min incubation at 32° C., the reaction was stopped by addition of 20 μl of a solution containing 100 mM Hepes-NaOH, pH 7.4, 0.015% (v/v) Brij-35, 45 mM EDTA and 0.227% chip coating reagent 1 (Caliper Lifescience Inc, Hopkinton, Mass.). Phosphorylation of the substrate peptide was then detected on a Caliper 3000 instrument essentially as described by Pommereau et al (J. Biomol. Screening 9(5), 409-416, 2004). Separation conditions were as follows: Pressure −1.3 psi, upstream voltage −1562 V, downstream voltage −500 V, sample sip time 200 ms. Positive controls (buffer 1 instead of compound) and negative controls (buffer 1 instead of compound and buffer 2 instead of kinase solution) were run in parallel on each plate. The following products/compounds were tested in said assay by using the respective form (salt or free base) obtained as in the examples described above and the following activities were measured.

recombinant human PKA = target: T2, recombinant human PKA (Homo sapiens, UniProt P17612); assay: Determination of Protein Kinase A inhibition (Caliper peptide phosphorylation assay); settings: recombinant human PKA versus ROCK II
T2 construct: Active recombinant human PKA (residues 1-351, N-terminal His-tag); His-tag (N); purchased Invitrogen, Karlsruhe, Germany
Experimental: as §1, §2, §3, §4

[2] = target: T3, human recombinant ROCK II (Homo sapiens, UniProt O75116); assay: Determination of Rho kinase inhibition (Caliper peptide phosphorylation assay); settings: 60 min at 32° C., negative decadal logarithm of the IC50
T3 construct: N-terminal His6-tagged recombinant human ROCK-II residues 11-552; His6 (N); purchased Millipore GmbH, Schwalbach, Germany
T3 sequence (O75116 11-552): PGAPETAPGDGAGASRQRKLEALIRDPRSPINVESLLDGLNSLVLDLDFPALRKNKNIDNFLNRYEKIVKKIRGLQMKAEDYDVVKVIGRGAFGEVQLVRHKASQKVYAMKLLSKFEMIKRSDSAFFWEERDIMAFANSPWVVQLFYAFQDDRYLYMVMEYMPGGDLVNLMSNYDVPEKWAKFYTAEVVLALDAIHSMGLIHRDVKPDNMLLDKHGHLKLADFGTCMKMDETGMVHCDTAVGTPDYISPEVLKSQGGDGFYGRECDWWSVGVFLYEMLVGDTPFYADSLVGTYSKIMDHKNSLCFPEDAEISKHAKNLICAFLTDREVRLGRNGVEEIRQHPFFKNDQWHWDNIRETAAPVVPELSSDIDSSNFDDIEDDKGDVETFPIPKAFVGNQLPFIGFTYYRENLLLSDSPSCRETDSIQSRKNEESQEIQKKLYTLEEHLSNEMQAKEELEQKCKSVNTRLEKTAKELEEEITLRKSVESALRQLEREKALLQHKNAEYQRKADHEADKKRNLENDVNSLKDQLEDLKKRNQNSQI
Experimental: Determination of Rho Kinase Inhibition
To measure Rho-kinase inhibition, IC50 values were determined according to the following protocol:
Active human recombinant ROCK II (N-terminal His6-tagged recombinant human ROCK-II residues 11-552) was purchased from Millipore GmbH, Schwalbach, Germany. The peptide substrate, Fluorescein-[…]-COOH, was obtained from JPT Peptide Technologies, Berlin, Germany. Adenosine-5′-triphosphate (ATP), bovine serum albumine (BSA), dimethylsulphoxide (DMSO), 4-(2-Hydroxyethyl)piperazine-1-ethanesulfonic acid (Hepes), Brij-35, dithiothreitol (DTT) and Pluronic F-68 were purchased from Sigma-Aldrich, Munich, Germany. Tris(hydroxymethyl)-aminomethane (Tris), magnesium chloride, NaOH, 1M HCl and EDTA were obtained from Merck Biosciences, Darmstadt, Germany. “Complete” protease inhibitor was from Roche Diagnostics, Mannheim, Germany.
Test compounds were diluted to the appropriate concentrations in buffer 1 (25 mM Tris-HCl, pH 7.4, 5 mM MgCl2, 2 mM DTT, 0.02% (w/v) BSA, 0.01% Pluronic F-68 and 3% DMSO). The ROCK II enzyme was diluted to a concentration of 100 ng/mL in buffer 2 (25 mM Tris-HCl, pH 7.4, 5 mM MgCl2, 2 mM DTT and 0.02% (w/v) BSA). The peptide substrate and ATP were diluted to concentrations of 3 μM and 120 μM, respectively, in the buffer 2. Two μl of the compound solution were mixed with 2 μl of the diluted enzyme in a 384-well small volume microtiter plate (Greiner, Bio-One, Frickenhausen, Germany), and the kinase reaction was initiated by addition of 2 μl of the solution containing peptide substrate and ATP. After 60 min incubation at 32° C., the reaction was stopped by addition of 20 μl of a solution containing 100 mM Hepes-NaOH, pH 7.4, 0.015% (v/v) Brij-35, 45 mM EDTA and 0.227% chip coating reagent 1 (Caliper Lifescience Inc, Hopkinton, Mass.). Phosphorylation of the substrate peptide was then detected on a Caliper 3000 instrument essentially as described by Pommereau et al (J. Biomol. Screening 9(5), 409-416, 2004). Separation conditions were as follows: Pressure −1.3 psi, upstream voltage −1562 V, downstream voltage −500 V, sample sip time 200 ms. Positive controls (buffer 1 instead of compound) and negative controls (buffer 1 instead of compound and buffer 2 instead of ROCK II) were run in parallel on each plate.
The following products/compounds were tested in said assay by using the respective form (salt or free base) obtained as in the examples described above and the following activities were measured

| SMILES | Selectivity against PKG [1] | Selectivity against PKA (recombinant human PKA) | IC50 [2] |
| --- | --- | --- | --- |
| COc1ccc(C(N)[C@H]2CC[C@@H](Oc3cc4cc[nH]c(=O)c4cc3Cl)CC2)cc1 (single isomer, unassigned) [Example 35, 6-{4-[Amino-(4-methoxy-phenyl)-methyl]-cyclohexyloxy}-7-chloro-2H-isoquinolin-1-one] | >100 | >1000 | ≤ 10 nM |
| COc1ccc(C(N)[C@H]2CC[C@@H](Oc3cc4cc[nH]c(=O)c4cc3Cl)CC2)cc1 (single isomer, unassigned) [Example 36, 6-{4-[Amino-(4-methoxy-phenyl)-methyl]-cyclohexyloxy}-7-chloro-2H-isoquinolin-1-one] | >300 | >300 | 10 to 100 nM |
| NC(c1ccc(F)cc1)C1CCC(Oc2cc3cc[nH]c(=O)c3cc2Cl)CC1 (single isomer, unassigned) [Example 37, 6-{4-[Amino-(4-fluoro-phenyl)-methyl]-cyclohexyloxy}-7-chloro-2H-isoquinolin-1-one] | >300 | >1000 | ≤ 10 nM |
| Cc1ccc(C(N)C2CCC(Oc3cc4cc[nH]c(=O)c4cc3Cl)CC2)cc1 (single isomer, unassigned) [Example 38, 6-[4-(Amino-p-tolyl-methyl)-cyclohexyloxy]-7-chloro-2H-isoquinolin-1-one] | >300 | >1000 | ≤ 10 nM |
| Cc1ccc(C(N)C2CCC(Oc3cc4cc[nH]c(=O)c4cc3Cl)CC2)cc1 (single isomer, unassigned) [Example 39, 6-[4-(Amino-p-tolyl-methyl)-cyclohexyloxy]-7-chloro-2H-isoquinolin-1-one] | >100 | >100 | 10 to 100 nM |
| NC(c1ccccc1)C1(c2ccccc2)CCC(Oc2cc3cc[nH]c(=O)c3cc2Cl)CC1 (single isomer, unassigned) [Example 41] | >10 | >10 | 100 to 1000 nM |
| NC(c1ccccc1)C1(c2ccccc2)CCC(Oc2cc3cc[nH]c(=O)c3cc2Cl)CC1 (single isomer, unassigned) [Example 42] | >300 | >300 | 10 to 100 nM |
| CC(N)(c1ccc(F)cc1)C1CCC(Oc2cc3cc[nH]c(=O)c3cc2Cl)CC1 (single isomer, unassigned) [Example 116, 6-{4-[1-Amino-1-(4-fluoro-phenyl)-ethyl]-cyclohexyloxy}-7-chloro-2H-isoquinolin-1-one] | >10 | >100 | 10 to 100 nM |
| CC(N)(C1CCC(Oc2cc3cc[nH]c(=O)c3cc2Cl)CC1)C1CC1 (single isomer, unassigned) [Example 120, 6-{4-[1-Amino-1-cyclopropyl-ethyl]-cyclohexyloxy}-7-chloro-2H-isoquinolin-1-one] | >10 | >100 | 100 to 1000 nM |
| CCCC(C)(N)C1CCC(Oc2cc3cc[nH]c(=O)c3cc2Cl)CC1 (single isomer, unassigned) [Example 121, 6-{4-[1-Amino-1-n-propyl-ethyl]-cyclohexyloxy}-7-chloro-2H-isoquinolin-1-one] | >10 | >100 | 10 to 100 nM |
| CCC(N)(CC)C1CCC(Oc2cc3cc[nH]c(=O)c3cc2Cl)CC1 (single isomer, unassigned) [Example 122, 6-{-4-[1-Amino-1-ethyl-propyl]-cyclohexyloxy}-7-chloro-2H-isoquinolin-1-one] | >10 | >300 | 10 to 100 nM |
| CC(N)(c1ccccc1)C1CCC(Oc2cc3cc[nH]c(=O)c3cc2Cl)CC1 (single isomer, unassigned) [Example 123, 6-{4-[1-Amino-1-phenyl-ethyl]-cyclohexyloxy}-7-chloro-2H-isoquinolin-1-one] | >10 | >100 | 10 to 100 nM |
